We go through 23 compounds from patent US9260408B2, “Dihydroquinoline-2-one derivatives” (Hoffmann-La Roche Inc., priority 2011, dated 2016).

One assay has as its target T1, human CYP11B1 (Homo sapiens, UniProt P15538).
T1 construct: expressed in transfected cells
T1 sequence (P15538 25-503): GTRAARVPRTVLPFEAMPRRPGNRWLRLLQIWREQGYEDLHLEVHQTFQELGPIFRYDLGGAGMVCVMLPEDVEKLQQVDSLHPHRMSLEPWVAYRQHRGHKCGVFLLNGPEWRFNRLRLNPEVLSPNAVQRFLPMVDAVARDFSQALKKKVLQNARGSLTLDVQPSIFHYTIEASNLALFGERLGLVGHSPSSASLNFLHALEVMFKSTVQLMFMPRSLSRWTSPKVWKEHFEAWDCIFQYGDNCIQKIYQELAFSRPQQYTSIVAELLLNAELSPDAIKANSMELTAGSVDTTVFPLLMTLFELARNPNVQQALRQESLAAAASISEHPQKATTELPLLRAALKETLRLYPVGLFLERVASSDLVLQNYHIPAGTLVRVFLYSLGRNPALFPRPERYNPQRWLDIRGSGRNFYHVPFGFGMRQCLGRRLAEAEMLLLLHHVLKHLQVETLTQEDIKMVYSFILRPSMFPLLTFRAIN
The assay is described as follows: G-402 cellular enzyme assay, human CYP11B1 (cortisol release, HTRF). The settings on record: G-402 cells expressing human CYP11B1; 1 μM Deoxycortisol. The format is cell-based. In short, it runs like this:
(§1)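 G-402 cells stably expressing human CYP11B2 or CYP11B1, in DMEM/F12 with 2.5% charcoal-treated FCS, were incubated 16 h with compound plus 1 μM deoxycorticosterone (CYP11B2) or 1 μM deoxycortisol (CYP11B1). Aldosterone or cortisol in the supernatant measured by HTRF; EC50 from a 4-parameter MMF fit.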

The next assay addresses T2, human CYP11B2 (Homo sapiens, UniProt P19099).
T2 construct: expressed in transfected cells
T2 sequence (P19099 25-503): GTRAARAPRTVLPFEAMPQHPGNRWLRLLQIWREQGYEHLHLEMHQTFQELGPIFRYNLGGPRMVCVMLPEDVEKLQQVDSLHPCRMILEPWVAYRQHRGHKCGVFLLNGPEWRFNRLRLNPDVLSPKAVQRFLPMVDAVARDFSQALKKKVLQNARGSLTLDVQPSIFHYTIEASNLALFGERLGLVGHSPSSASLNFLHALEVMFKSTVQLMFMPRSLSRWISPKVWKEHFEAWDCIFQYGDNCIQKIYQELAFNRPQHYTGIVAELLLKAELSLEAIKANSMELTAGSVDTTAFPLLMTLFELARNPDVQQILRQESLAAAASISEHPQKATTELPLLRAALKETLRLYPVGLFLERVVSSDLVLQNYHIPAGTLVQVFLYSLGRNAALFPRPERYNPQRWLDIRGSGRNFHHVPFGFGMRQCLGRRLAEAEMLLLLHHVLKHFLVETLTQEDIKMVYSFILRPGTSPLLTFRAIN
The assay is described as follows: G-402 cellular enzyme assay, human CYP11B2 (aldosterone release, HTRF). The format is cell-based. Particulars: G-402 cells expressing human CYP11B2; 1 μM Deoxycorticosterone. The procedure, abridged: as §1

The subject of assay [1] is rat model of chronic kidney disease. Particulars: cited from earlier work.

Structures can show the parent of a compound that is named as a salt.

The term EC50 denotes the concentration giving half of the maximal effect. A higher EC50 goes with a need for much substance. With `CN(Cc1cncc(-c2ccc3c(c2)CCC(=O)N3C)c1Cl)C(=O)c1ncccc1Cl` [Example 228, 3-Chloro-pyridine-2-carboxylic acid [4-chloro-5-(1-methyl-2-oxo-1,2,3,4-tetrahydro-quinolin-6-yl)-pyridin-3-ylmethyl]-methyl-amide], the EC50 was 356 nM at human CYP11B1 and 9 nM at human CYP11B2.
`Cc1c(CN(C)C(=O)c2ncccc2Cl)cncc1-c1ccc2c(c1)CCC(=O)N2C` [Example 229, 3-Chloro-pyridine-2-carboxylic acid methyl-[4-methyl-5-(1-methyl-2-oxo-1,2,3,4-tetrahydro-quinolin-6-yl)-pyridin-3-ylmethyl]-amide]: the EC50 on human CYP11B1 is 656 nM; at human CYP11B2, 10 nM.
Taken in the same sequence, the figures for `CN1C(=O)CCc2cc(-c3cncc(C4=CN(C(=O)OC(C)(C)C)CCC4)c3)ccc21` [Example 231, 5′-(1-Methyl-2-oxo-1,2,3,4-tetrahydro-quinolin-6-yl)-5,6-dihydro-4H-[3,3′]bipyridinyl-1-carboxylic acid tert-butyl ester] were 802 nM and 19 nM.
Regarding `CN1C(=O)CCc2cc(-c3cncc(OCCNC(=O)OC(C)(C)C)c3)c(F)cc21` [Example 232, {2-[5-(7-Fluoro-1-methyl-2-oxo-1,2,3,4-tetrahydro-quinolin-6-yl)-pyridin-3-yloxy]-ethyl}-carbamic acid tert-butyl ester], the values for the EC50 at human CYP11B1 and on human CYP11B2 were 16 nM and 1 nM, respectively.
In the same order, the values of `CN1C(=O)CCc2cc(-c3cncc(OCCNC(=O)c4ncccc4Cl)c3)ccc21` [Example 233, 3-Chloro-pyridine-2-carboxylic acid {2-[5-(1-methyl-2-oxo-1,2,3,4-tetrahydro-quinolin-6-yl)-pyridin-3-yloxy]-ethyl}-amide] are 219 nM and 13 nM.
As for `CCS(=O)(=O)NCc1cncc(-c2cc3c4c(c2)CCN4C(=O)CC3)c1` [Example 234, Ethanesulfonic acid [5-(4-oxo-1,2,5,6-tetrahydro-4H-pyrrolo[3,2,1-ij]quinolin-8-yl)-pyridin-3-ylmethyl]-amide], the results for the EC50 at human CYP11B1 and on human CYP11B2 were 2260 nM and 27 nM, respectively.
Taken in the same sequence, the figures for `CCS(=O)(=O)NCc1cncc(-c2cc3c4c(c2)CCC(=O)N4CCC3)c1` [Example 235, Ethanesulfonic acid [5-(3-oxo-2,3,6,7-tetrahydro-1H,5H-pyrido[3,2,1-ij]quinolin-9-yl)-pyridin-3-ylmethyl]-amide] were 4660 nM and 109 nM.
With `O=C(NCc1cncc(-c2cc3c4c(c2)CCN4C(=O)CC3)c1)c1ncccc1Cl` [Example 236, 3-Chloro-pyridine-2-carboxylic acid [5-(4-oxo-1,2,5,6-tetrahydro-4H-pyrrolo[3,2,1-ij]quinolin-8-yl)-pyridin-3-ylmethyl]-amide], the EC50 was 77 nM on human CYP11B1 and 3 nM on human CYP11B2.
Taken in the same sequence, the figures for `CN(Cc1cncc(-c2cc3c4c(c2)CCN4C(=O)CC3)c1)C(=O)c1ncccc1Cl` [Example 237, 3-Chloro-pyridine-2-carboxylic acid methyl-[5-(4-oxo-1,2,5,6-tetrahydro-4H-pyrrolo[3,2,1-ij]quinolin-8-yl)-pyridin-3-ylmethyl]-amide] were 143 nM and 8 nM.
In the same order, the values of `CN1C(=O)CCc2cc(-c3cncc(OCCN)c3)c(F)cc21` [Example 238, 6-[5-(2-Amino-ethoxy)-pyridin-3-yl]-7-fluoro-1-methyl-3,4-dihydro-1H-quinolin-2-one hydrochloride] are 513 nM and 5 nM.
Regarding `CCS(=O)(=O)NCCOc1cncc(-c2cc3c(cc2F)N(C)C(=O)CC3)c1` [Example 243, Ethanesulfonic acid {2-[5-(7-fluoro-1-methyl-2-oxo-1,2,3,4-tetrahydro-quinolin-6-yl)-pyridin-3-yloxy]-ethyl}-amide], the EC50 is 26 nM on human CYP11B1 and 1 nM on human CYP11B2.
In the same order, the values of `CN1C(=O)CCc2cc(-c3cncc(OCCNC(=O)c4ncccc4Cl)c3)c(F)cc21` [Example 244, 3-Chloro-pyridine-2-carboxylic acid {2-[5-(7-fluoro-1-methyl-2-oxo-1,2,3,4-tetrahydro-quinolin-6-yl)-pyridin-3-yloxy]-ethyl}-amide] are 75 nM and 2 nM.
Consider `CN1C(=O)CCc2cc(-c3cncc(O[C@H]4CC[C@H](NS(C)(=O)=O)CC4)c3)ccc21` [Example 245, N-{(trans)-4-[5-(1-Methyl-2-oxo-1,2,3,4-tetrahydro-quinolin-6-yl)-pyridin-3-yloxy]-cyclohexyl}-methanesulfonamide], for which the EC50 was found to be 72 nM at human CYP11B1 and 1 nM at human CYP11B2.
Turning to `Cc1noc(C)c1C(=O)NCc1cncc(-c2cc3c(cc2F)N(C)C(=O)CC3)c1C` [Example 246, 3,5-Dimethyl-isoxazole-4-carboxylic acid [5-(7-fluoro-1-methyl-2-oxo-1,2,3,4-tetrahydro-quinolin-6-yl)-4-methyl-pyridin-3-ylmethyl]-amide], the EC50 on human CYP11B1 was 4720 nM; at human CYP11B2, 13 nM.
In the same order, the values of `CN1C(=O)CCc2cc(-c3cncc(C4=CCN(C(=O)OC(C)(C)C)CC4)c3)ccc21` [Example 247, 5-(1-Methyl-2-oxo-1,2,3,4-tetrahydro-quinolin-6-yl)-3′,6′-dihydro-2′H-[3,4′]bipyridinyl-1′-carboxylic acid tert-butyl ester] are 69 nM and 5 nM.
Taken in the same sequence, the figures for `CC(=O)N1CC[C@H](Oc2cncc(-c3ccc4c(c3)CCC(=O)N4C)c2)C1` [Example 254, 6-[5-((S)-1-Acetyl-pyrrolidin-3-yloxy)-pyridin-3-yl]-1-methyl-3,4-dihydro-1H-quinolin-2-one] were 49 nM and 1 nM.
Taken in the same sequence, the figures for `CN1C(=O)CCc2cc(-c3cncc(O[C@H]4CCN(C(=O)c5cnn(C)c5)C4)c3)ccc21` [Example 255, 1-Methyl-6-{5-[(S)-1-(1-methyl-1H-pyrazole-4-carbonyl)-pyrrolidin-3-yloxy]-pyridin-3-yl}-3,4-dihydro-1H-quinolin-2-one] were 1320 nM and 13 nM.
As to `CCOC(=O)N1CC[C@H](Oc2cncc(-c3ccc4c(c3)CCC(=O)N4C)c2)C1` [Example 256, (S)-3-[5-(1-Methyl-2-oxo-1,2,3,4-tetrahydro-quinolin-6-yl)-pyridin-3-yloxy]-pyrrolidine-1-carboxylic acid ethyl ester], the EC50 turned out to be 158 nM on human CYP11B1 and 8 nM on human CYP11B2.
Turning to `Cc1oncc1C(=O)NCc1cncc(-c2cc3c(cc2F)N(C)C(=O)CC3)c1C` [Example 259, 5-Methyl-isoxazole-4-carboxylic acid [5-(7-fluoro-1-methyl-2-oxo-1,2,3,4-tetrahydro-quinolin-6-yl)-4-methyl-pyridin-3-ylmethyl]-amide], the EC50 at human CYP11B1 is 154 nM; at human CYP11B2, 1 nM.
Taken in the same sequence, the figures for `Cn1c(=O)ccc2cc(-c3cncc(C4(N)CC4)c3)ccc21` [Example 262, 6-[5-(1-Amino-cyclopropyl)-pyridin-3-yl]-1-methyl-1H-quinolin-2-one] were 1820 nM and 84 nM.
As for `CCC(=O)NCc1cncc(-c2ccc3c(c2)CCC(=O)N3C)c1Cl` [Example 265, N-[4-Chloro-5-(1-methyl-2-oxo-1,2,3,4-tetrahydro-quinolin-6-yl)-pyridin-3-ylmethyl]-propionamide], the figures for the EC50 at human CYP11B1 and at human CYP11B2 were 623 nM and 9 nM, respectively.
Taken in the same sequence, the figures for `Cc1noc(C)c1C(=O)NCCOc1cncc(-c2cc3c(cc2F)N(C)C(=O)CC3)c1` [Example 267, 3,5-Dimethyl-isoxazole-4-carboxylic acid {2-[5-(7-fluoro-1-methyl-2-oxo-1,2,3,4-tetrahydro-quinolin-6-yl)-pyridin-3-yloxy]-ethyl}-amide] were 236 nM and 1 nM.
Turning to `CC(=O)S[C@@H]1CC2=CC(=O)CC[C@]2(C)[C@H]2CC[C@@]3(C)[C@@H](CC[C@@]34CCC(=O)O4)[C@H]12` [spironolactone], the plasma aldosterone result in assay [1] (FAD286: 4 weeks of treatment, spironolactone: 4 and 8 weeks of treatment) is reported as “increased”. For the same compound, in assay [1] (angiotensin II and high salt treatment), the “renal effects (albuminuria, azotemia, renovascular hypertrophy, glomerular injury, PAI-1 and osteopontin mRNA, tubulointerstitial fibrosis)” value is reported as “prevented these renal effects”. The “angiotensin II and salt-stimulated PAI-1 mRNA expression in the aorta and the heart” value in assay [1] (rat, in vivo) is given as “enhanced”.
